Values after ≈ are worked out from the molar mass of the structure shown.
System: various strains of bacteria
Assay: Antimicrobial potency: bacterial growth inhibition by OD600 (Antibacterial assay 1)
Format: cell-based
Conditions: read-out: Antibacterial assay 1 (MITC95)
Protocol: The concentrations of compounds required to inhibit the growth of various strains of bacteria were determined in an assay that assessed bacterial growth by measuring optical density at 600 nm (OD600). Test articles were dissolved in 100% DMSO and serially diluted two-fold from their maximal concentration in 100% DMSO. Forty-nine μl of bacterial inoculum (at approx. 2×10^5 cfu/mL in CAMHB) were put into wells of an assay plate. One μl of compound or DMSO was transferred from the source plate to the assay plate. The completed assay plates were then incubated at 35±2 degC. for 18-22 h. Bacterial growth was measured by reading OD600 on a spectrophotometer. Data analysis calculates the lowest concentration of compound which results in ≥95% growth inhibition (minimum inhibitory threshold concentration 95%, MITC95).

| SMILES | MIC |
| --- | --- |
| CCCCc1ccc(S(=O)(=O)Nc2ccc(NC(=O)CCC(=O)Nc3ccc(NS(=O)(=O)c4ccc(CCCC)cc4)c(P(=O)(O)O)c3)cc2C(=O)O)cc1 [Compound 1, 2-((4-butylphenyl)sulfonamido)-5-(4-((4-((4-butylphenyl)sulfonamido)-3-phosphonophenyl)amino)-4-oxobutanamido)benzoic acid] | 1.56 µM (≈ 1.27 µg/mL) |
| CCCCc1ccc(S(=O)(=O)Nc2ccc(NC(=O)CCC(=O)Nc3ccc(NS(=O)(=O)c4ccc(CCCC)cc4)c(C(=O)O)c3)cc2C(=O)O)cc1 [Compound 2, 5,5′-(succinylbis(azanediyl))bis(2-((4-butylphenyl)sulfonamido)benzoic acid)] | 0.0568 µM (≈ 0.0442 µg/mL) |
| CCCCc1ccc(S(=O)(=O)Nc2ccc(NC(=O)CCC(=O)Nc3cnc(NS(=O)(=O)c4ccc(CCCC)cc4)c(C(=O)O)c3)cc2C(=O)O)cc1 [Compound 3, 2-((4-butylphenyl)sulfonamido)-5-(4-((4-((4-butylphenyl)sulfonamido)-3-carboxyphenyl)amino)-4-oxobutanamido)nicotinic acid] | 0.621 µM (≈ 0.484 µg/mL) |
| O=C(CCCOc1ccc(NS(=O)(=O)c2ccc(-c3ccc(Cl)cc3)s2)c(C(=O)O)c1)Nc1ccc(NS(=O)(=O)c2ccc(-c3ccc(Cl)cc3)s2)c(C(=O)O)c1 [Compound 4, 5-(4-(3-Carboxy-4-((5-(4-chlorophenyl)thiophene)-2-sulfonamido)phenoxy)-butanamido)-2-((5-(4-chlorophenyl)thiophene)-2-sulfonamido)benzoic acid] | 0.0122 µM (≈ 0.0108 µg/mL) |
| O=C(CCCOc1ccc(NS(=O)(=O)c2cnn(-c3ccc(Cl)cc3)c2)c(C(=O)O)c1)Nc1ccc(NS(=O)(=O)c2ccc(-c3cc(Cl)cc(Cl)c3)cc2)c(C(=O)O)c1 [Compound 5] | 0.0122 µM (≈ 0.011 µg/mL) |
| O=C(CCCOc1ccc(NS(=O)(=O)c2cnn(-c3ccc(Cl)cc3)c2)c(C(=O)O)c1)Nc1ccc(NS(=O)(=O)c2ccc(-c3ccc(F)cc3)cc2)c(C(=O)O)c1 [Compound 6] | 0.0173 µM (≈ 0.0147 µg/mL) |
| Cc1c(S(=O)(=O)Nc2ccc(NC(=O)CCCOc3ccc(NS(=O)(=O)c4cnn(-c5ccc(Cl)cc5)c4)c(C(=O)O)c3)cc2C(=O)O)sc2ccc(Cl)cc12 [Compound 7] | 0.0122 µM (≈ 0.0105 µg/mL) |
| CCCCc1ccc(S(=O)(=O)Nc2ccc(NC(=O)CCCOc3ccc(NS(=O)(=O)c4sc(-c5ccccc5)nc4C)c(C(=O)O)c3)cc2C(=O)O)cc1 [Compound 8] | 0.0173 µM (≈ 0.014 µg/mL) |
| O=C(CCCOc1ccc(NS(=O)(=O)c2ccc(Oc3ccc(Cl)cc3)nc2)c(C(=O)O)c1)Nc1ccc(NS(=O)(=O)c2ccc(Oc3ccc(Cl)cc3)nc2)c(C(=O)O)c1 [Compound 9] | 0.0122 µM (≈ 0.0111 µg/mL) |
| CCCCc1ccc(S(=O)(=O)Nc2ccc(OCCCC(=O)Nc3ccc(NS(=O)(=O)c4ccc(CCCC)cc4)c(C(=O)O)n3)cc2C(=O)O)cc1 [Compound 10] | 0.985 µM (≈ 0.755 µg/mL) |
| O=C(CCCOc1ccc(NS(=O)(=O)c2cnn(-c3ccc(Cl)cc3)c2)c(C(=O)O)c1)Nc1ccc(NC(=O)Cc2ccc(-c3ccc(F)cc3)cc2)c(C(=O)O)c1 [Compound 11] | 0.0489 µM (≈ 0.0404 µg/mL) |
| O=C(CCCOc1ccc(NS(=O)(=O)c2cnn(-c3ccc(Cl)cc3)c2)c(C(=O)O)c1)Nc1ccc(NC(=O)Cc2cccc(-c3ccc(F)cc3)c2)c(C(=O)O)c1 [Compound 12] | 0.0489 µM (≈ 0.0404 µg/mL) |
| O=C(COc1ccc(NS(=O)(=O)c2cnn(-c3ccc(Cl)cc3)c2)c(C(O)O)c1)Nc1ccc(NC(=O)C(=O)NCc2ccc(Cl)cc2)c(C(=O)O)c1 [Compound 13] | 0.0978 µM (≈ 0.0766 µg/mL) |
| O=C(Nc1ccc(NS(=O)(=O)c2cnn(-c3ccc(F)cc3)c2)c(C(=O)O)c1)Nc1ccc(NS(=O)(=O)c2cnn(-c3ccc(F)cc3)c2)c(C(=O)O)c1 [Compound 14, 5-(3-(3-carboxy-4-((1-(4-fluorophenyl)-1H-pyrazole)-4-sulfonamido)phenyl)ureido)-2-((1-(4-fluorophenyl)-1H-pyrazole)-4-sulfonamido)benzoic acid] | 3.13 µM (≈ 2.44 µg/mL) |
| CCCCc1ccc(S(=O)(=O)Nc2ccc(NC(=O)Nc3ccc(NS(=O)(=O)c4ccc(CCCC)cc4)c(C(=O)O)c3)cc2C(=O)O)cc1 [Compound 15] | 2.21 µM (≈ 1.6 µg/mL) |
| O=C(Nc1ccc(NC(=O)C(=O)NCc2ccc(Cl)cc2)c(C(=O)O)c1)Nc1ccc(NC(=O)C(=O)NCc2ccc(Cl)cc2)c(C(=O)O)c1 [Compound 17, 5,5′-(carbonylbis(azanediyl))bis(2-(2-((4-chlorobenzyl)amino)-2-oxoacetamido)benzoic acid)] | 0.0245 µM (≈ 0.0177 µg/mL) |
| O=C(Nc1ccc(NC(=O)C(=O)NCCc2ccc(Cl)cc2)c(C(=O)O)c1)Nc1ccc(NC(=O)C(=O)NCCc2ccc(Cl)cc2)c(C(=O)O)c1 [Compound 19] | > 3.13 µM |
| CCCCc1ccc(S(=O)(=O)Nc2ccc(NC(=O)CCNC(=O)c3ccc(NS(=O)(=O)c4ccc(CCCC)cc4)c(C(=O)O)c3)cc2C(=O)O)cc1 [Compound 20, 2-((4-butylphenyl)sulfonamido)-5-(3-(4-((4-butylphenyl)sulfonamido)-3-carboxy-benzamido)propanamido)benzoic acid] | 0.112 µM (≈ 0.0872 µg/mL) |
| CCCCc1ccc(S(=O)(=O)Nc2ccc(NC(=O)CCNC(=O)c3ccc(NS(=O)(=O)c4ccc(CCOC)cc4)c(C(O)O)c3)cc2C(=O)O)cc1 [Compound 21] | 0.782 µM (≈ 0.612 µg/mL) |
| CCCCc1ccc(S(=O)(=O)Nc2ccc(NC(=O)C[C@H](C)NC(=O)c3ccc(NS(=O)(=O)c4ccc(CCCC)cc4)c(C(O)O)c3)cc2C(=O)O)cc1 [Compound 22] | 0.782 µM (≈ 0.622 µg/mL) |
| O=C(CCNC(=O)c1ccc(NS(=O)(=O)c2cnn(-c3ccc(Cl)cc3)c2)c(C(O)O)c1)Nc1ccc(NS(=O)(=O)c2cnn(-c3ccc(Cl)cc3)c2)c(C(=O)O)c1 [Compound 23] | 0.098 µM (≈ 0.0852 µg/mL) |

— patent US20250312362A1, “INHIBITORS OF MsbA AS ANTIBIOTICS, PHARMACEUTICAL COMPOSITIONS, AND USES THEREOF” (Merck Sharp & Dohme LLC, priority 2022, published 2025)
